These results are taken from article PMC10141580, “Cyclic Dichalcogenides Extend the Reach of Bioreductive Prodrugs to Harness Thiol/Disulfide Oxidoreductases: Applications to seco-Duocarmycins Targeting the Thioredoxin System” (ACS Central Science, 2023).

The subject of this series is athymic nu/nu NMRI mice with BxPC-3 tumors. Kind of series: BxPC-3-bearing tolerability study. The format is in vivo, mouse. The following applies: twice weekly 3 mg/kg, five injections, BxPC-3-bearing NMRI mice. The text has this: A larger study was run in 50 athymic nu/nu NMRI mice (10 animals per group) inoculated with BxPC-3 pancreatic cancer cells since the study had been intended as a therapeutic efficacy trial (see section 2.9). Similarly solubilized SS66C derivatives were now included. In this study, the tumor growth rates in all animals were much lower than in any previous or subsequent trials (Figure S16c), so we could only extract data about drug tolerability, not antitumor efficacy. Still, the study confirmed that the solubilized P-SS60-, Me-SS66C-, and P-SS66C- prodrugs of -CBI-TMI, and the corresponding carbamate hydrolysis control P-CC60-CBI-TMI, were tolerated with twice weekly injections at 3 mg/kg, over a course of five injections, in all animals, since no distinct differences of body weight or animal health were seen as compared to the vehicle control (Figure S16a).
a Body weights b Body weights
$ Absolute Tumour Volumes d Absolute Tumour Volumes
Irinotecan Irinotecan Irinotecan Irinotecan
(a,b) Bodyweights (means);
confidence interval). […] Dotted vertical lines indicate days
With `COc1cc2cc(C(=O)N3CC(CCl)c4c3cc(OC(=O)N3CCN(C)C5CSSCC53)c3ccccc43)[nH]c2c(OC)c1OC` (mixture of isomers) [Me-SS66C-CBI-TMI], the tolerability entry was “tolerated”.

In the case of `COc1cc2cc(C(=O)N3C[C@@H](CCl)c4c3cc(OC(=O)N(CCC(=O)N3CCN(C)CC3)C3CCCCC3)c3ccccc43)[nH]c2c(OC)c1OC` [P-CC60-CBI-TMI], the tolerability entry is on record as “tolerated”.

With `COc1cc2cc(C(=O)N3C[C@@H](CCl)c4c3cc(OC(=O)N(CCC(=O)N3CCN(C)CC3)[C@H]3CCSSC3)c3ccccc43)[nH]c2c(OC)c1OC` [P-SS60-CBI-TMI], the tolerability result is “tolerated”.

Consider `COc1cc2cc(C(=O)N3C[C@@H](CCl)c4c3cc(OC(=O)N3CCN(C(=O)CCC(=O)N5CCN(C)CC5)[C@H]5CSSC[C@H]53)c3ccccc43)[nH]c2c(OC)c1OC` [P-SS66C-CBI-TMI], for which the tolerability result is on record as “tolerated”.
